Results on ten compounds are retold here after patent US9216978B2, “Ring-fused pyrimidines and triazines and use thereof for the treatment and/or prophylaxis of cardiovascular diseases” (BAYER INTELLECTUAL PROPERTY GMBH, priority 2010, dated 2015).

One data set concerns aorta. Kind of data set: Vessel-relaxing action in vitro (phenylephrine-contracted aorta rings). The following applies: Oryctolagus cuniculus; rabbit aorta rings, phenylephrine contraction; concentration reducing control contraction by 50%. As to the method:
B-1. Vessel-Relaxing Action In Vitro
Rabbits are stunned with a blow on the back of the neck and exsanguinated. The aorta is removed, freed from adhering tissue, separated into rings with a width of 1.5 mm, and placed individually, with preloading, in 5-ml organ baths with carbogen-gassed Krebs-Henseleit solution at 37° C. with the following composition (mM in each case): sodium chloride: 119; potassium chloride: 4.8; calcium chloride dihydrate: 1; magnesium sulphate heptahydrate: 1.4; potassium dihydrogen phosphate: 1.2; sodium hydrogen carbonate: 25; glucose: 10. The contraction force is recorded with Statham UC2 cells, amplified and digitized via an A/D converter (DAS-1802 HC, Keithley Instruments Munich) and recorded in parallel on a continuous-line recorder. To produce contraction, phenylephrine is added to the bath cumulatively in increasing concentration. After several control cycles, the test substance is added in increasing dosage in each subsequent pass and the level of contraction is compared with the level of contraction reached in the immediately preceding pass. This is used for calculating the concentration that is required to reduce the level of the control value by 50% (IC50 value). The standard application volume is 5 μl, and the proportion of DMSO in the bath solution corresponds to 0.1%.

In data set [1] the target is T1, recombinant guanylate cyclase reporter cell line (Rattus norvegicus, UniProt P19686+P20595).
T1 construct: expressed in transfected cells
T1 sequence (P20595 1-619): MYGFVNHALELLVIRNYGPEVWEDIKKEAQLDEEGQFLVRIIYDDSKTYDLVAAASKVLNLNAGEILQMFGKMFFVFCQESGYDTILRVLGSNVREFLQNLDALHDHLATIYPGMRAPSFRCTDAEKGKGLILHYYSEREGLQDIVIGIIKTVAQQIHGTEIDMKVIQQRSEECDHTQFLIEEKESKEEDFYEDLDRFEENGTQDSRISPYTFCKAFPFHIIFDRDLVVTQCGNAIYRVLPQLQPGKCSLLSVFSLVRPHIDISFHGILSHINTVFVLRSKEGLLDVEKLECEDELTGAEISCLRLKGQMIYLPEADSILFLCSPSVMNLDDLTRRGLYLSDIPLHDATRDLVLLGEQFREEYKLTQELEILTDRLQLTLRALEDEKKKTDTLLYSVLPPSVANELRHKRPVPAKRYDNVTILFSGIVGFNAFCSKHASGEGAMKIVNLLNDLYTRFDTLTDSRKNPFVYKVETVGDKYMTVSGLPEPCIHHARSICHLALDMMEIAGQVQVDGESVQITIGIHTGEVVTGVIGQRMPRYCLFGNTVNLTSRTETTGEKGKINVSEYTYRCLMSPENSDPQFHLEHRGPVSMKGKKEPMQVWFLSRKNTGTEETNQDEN
T1 sequence (P19686 1-690): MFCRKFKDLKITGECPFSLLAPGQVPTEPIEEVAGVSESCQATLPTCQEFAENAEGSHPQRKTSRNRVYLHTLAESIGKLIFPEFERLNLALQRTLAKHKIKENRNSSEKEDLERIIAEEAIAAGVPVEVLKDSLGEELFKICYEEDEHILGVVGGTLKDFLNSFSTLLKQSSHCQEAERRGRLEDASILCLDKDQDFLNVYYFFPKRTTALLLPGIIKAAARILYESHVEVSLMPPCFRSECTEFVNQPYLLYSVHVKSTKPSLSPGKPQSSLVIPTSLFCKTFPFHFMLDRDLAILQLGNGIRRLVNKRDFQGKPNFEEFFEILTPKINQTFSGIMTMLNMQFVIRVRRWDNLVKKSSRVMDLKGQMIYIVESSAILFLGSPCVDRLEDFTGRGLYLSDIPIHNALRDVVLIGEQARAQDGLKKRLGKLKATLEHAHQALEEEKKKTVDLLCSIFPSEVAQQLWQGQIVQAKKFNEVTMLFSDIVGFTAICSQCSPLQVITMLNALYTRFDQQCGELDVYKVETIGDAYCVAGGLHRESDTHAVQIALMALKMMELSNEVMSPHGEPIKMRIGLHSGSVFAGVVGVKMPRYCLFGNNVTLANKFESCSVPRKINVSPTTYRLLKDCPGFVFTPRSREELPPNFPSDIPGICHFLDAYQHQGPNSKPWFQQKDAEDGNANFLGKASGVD
The data set is described as follows: Action on recombinant guanylate cyclase reporter cell line. Format: cell-based. As to the method: B-2. Action on Recombinant Guanylate Cyclase Reporter Cell Line
The cellular action of the compounds according to the invention is determined on a recombinant guanylate cyclase reporter cell line, as described in F. Wunder et al., Anal. Biochem. 339, 104-112 (2005).

The nature of data set [2]: Determination of pharmacokinetic parameters after intravenous administration in rats. Format: in vivo, rat. The following applies: intravenous administration of 0.3 mg/kg; for MRT / half-life: male, Wistar, rat, plasma; for MRT: read-out: mean residence time; for half-life: read-out: terminal half-life (converted). As to the method:
B-4. Determination of Pharmacokinetic Parameters after Intravenous and Oral Administration
The pharmacokinetic parameters of the compounds of the formula (I) according to the invention are determined in male CD-1 mice, male Wistar rats and/or female beagles. The administration volume is 5 ml/kg for mice, 5 ml/kg for rats and 0.5 ml/kg for dogs. Intravenous administration is via a formulation of species-specific plasma/DMSO (99/1) in the case of mice and rats and via water/PEG400/ethanol (50/40/10 or 30/60/10) in the case of dogs. For easier removal of blood, a silicone catheter is inserted into the right Vena jugularis externa of the rats before the administration of substance. The surgical intervention takes place one day prior to the experiment with isofluran anaesthesia and administration of an analgetic (atropine/rimadyl (3/1) 0.1 ml s.c.). Substance administration is as i.v. bolus in the case of mice and rats and via a 15-minute infusion in the case of dogs. Removal of blood is after 0.033, 0.083, 0.17, 0.5, 1, 2, 3, 4, 6, 7 and 24 hours in the case of rats, after 0.033, 0.083, 0.17, 0.5, 1, 2, 3, 4, 6, 7, 24, 48 and 72 hours in the case of mice and after 0.083, 0.25, 0.28 0.33, 0.42, 0.75, 1, 2, 3, 4, 6, 7 and 24 hours in the case of dogs. For all species, oral administration of the dissolved substance via gavage is carried out based on a water/PEG400/ethanol formulation (50/40/10). Here, the removal of blood from rats is after 0.083, 0.17, 0.5, 0.75, 1, 2, 3, 4, 6, 7 and 24 hours and from dogs after 0.083, 0.17, 0.5, 0.75, 1, 2, 3, 4, 6, 7, 24, 30 and 48 hours. The blood is removed into heparinized tubes. The blood plasma is then obtained by centrifugation; if required, it can be stored at −20° C. until further processing.
An internal standard (ZK 228859) is added to the samples of the compounds of the formula (I) according to the invention, calibration samples and QCs, and the protein is precipitated using excess acetonitrile. After addition of an ammonium acetate buffer (0.01 M, pH 6.8) and subsequent vortexing, the mixture is centrifuged at 1000 g and the supernatant is examined by LC-MS/MS (API 4000, AB Sciex). Chromatographic separation is carried out on an Agilent 1100-HPLC. The injection volume is 10 μl. The separation column used is a Phenomenex Luna 5μ C8(2) 100 A 50×2 mm, adjusted to a temperature of 40° C. A binary mobile phase gradient at 500 μl/min is used (A: 0.01 M ammonium acetate buffer pH 6.8, B: 0.1% formic acid in acetonitrile): 0 min (90% A), 1 min (90% A), 3 min (15% A), 4 min (15% A), 4.50 min (90% A), 6 min (90% A). The temperature of the Turbo V ion source is 500° C. The following MS instrument parameters are used: curtain gas 15 units, ion spray voltage 4.8 kV, gas 1 45 units, gas 2 35 units, CAD gas 40 units. The substances are quantified by peak heights or areas using extracted ion chromatograms of specific MRM experiments.
The pharmacokinetic parameters such as AUC, Cmax, t1/2 (terminal half-life), MRT (mean residence time) and CL (clearance) are calculated by means of the validated pharmacokinetics calculation program KinEx (Vers. 2.5 and 3) from the plasma concentration-time curves obtained.
As substance quantification takes place in plasma, the blood/plasma distribution of the substance must be determined for appropriate adjustment of the pharmacokinetic parameters. For this, a defined amount of the substance in heparinized whole blood of the corresponding species is incubated for 20 min in the tumbling roller mixer. After centrifugation at 1000 g, the plasma concentration is measured (see above) and the Cblood/Cplasma value is determined by finding the quotient.
Following intravenous administration of 0.3 mg/kg of Example 1, 18, 19 and 27 in rats, the following values were recorded: […]

Each structure is given as a SMILES string.

By IC50 is commonly meant the concentration needed to halve the response being measured. A higher IC50 goes with weaker potency. The half-life is the time needed for the level to fall by half in the phase considered. Turning to `CC1(C)C(=O)Nc2nc(-c3nn(Cc4ccccc4F)c4ncccc34)ncc21` [Example 1, 2-[1-(2-Fluorobenzyl)-1H-pyrazolo[3,4-b]pyridin-3-yl]-5,5-dimethyl-5,7-dihydro-6H-pyrrolo[2,3-d]pyrimidin-6-one], in the data set with aorta, the IC50 came to 0.012 µM. The “MEC (minimal effective concentration)” value in data set [1] was 0.01 µM. For the same compound, in data set [2], the CLblood worked out at 1.1 L/h/kg, the MRT is 1.2 h and the half-life was 0.9 h.
In turn, `CC1(O)C(=O)Nc2nc(-c3nn(Cc4ccccc4F)c4ncccc34)ncc21` (centres unmarked) [Example 17, 2-[1-(2-Fluorobenzyl)-1H-pyrazolo[3,4-b]pyridin-3-yl]-5-hydroxy-5-methyl-5,7-dihydro-6H-pyrrolo[2,3-d]pyrimidin-6-one] showed an IC50 with aorta of 0.013 µM. Moreover, in data set [1], the “MEC (minimal effective concentration)” value was 0.1 µM.
In the data set on aorta, `O=C1Nc2nc(-c3nn(Cc4ccccc4F)c4ncccc34)ncc2C1(O)C(F)(F)F` (centres unmarked) [Example 18, 2-[1-(2-Fluorobenzyl)-1H-pyrazolo[3,4-b]pyridin-3-yl]-5-hydroxy-5-(trifluoromethyl)-5,7-dihydro-6H-pyrrolo[2,3-d]pyrimidin-6-one] registered an IC50 of 0.093 µM. The “MEC (minimal effective concentration)” value in data set [1] is 0.03 µM. In data set [2], the CLblood is recorded as 0.46 L/h/kg, the MRT was 1.9 h and the half-life was 1.4 h.
`CC1(C)C(=O)Nc2nc(-c3nn(Cc4cccc(F)c4F)c4ncc(F)cc34)nnc21` [Example 20, 3-[1-(2,3-Difluorobenzyl)-5-fluoro-1H-pyrazolo[3,4-b]pyridin-3-yl]-7,7-dimethyl-5,7-dihydro-6H-pyrrolo[2,3-e][1,2,4]triazin-6-one]: the concentration for half-maximal inhibition (IC50) in the data set with aorta worked out at 0.045 µM. Further, the “MEC (minimal effective concentration)” value in data set [1] turned out to be 0.03 µM.
The matching figures for `CC1(F)C(=O)Nc2nc(-c3nn(Cc4ccccc4F)c4ncccc34)ncc21` (centres unmarked) [Example 23, 5-Fluoro-2-[1-(2-fluorobenzyl)-1H-pyrazolo[3,4-b]pyridin-3-yl]-5-methyl-5,7-dihydro-6H-pyrrolo[2,3-d]pyrimidin-6-one]: 0.015 µM and 0.03 µM.
The matching figures for `CC(C)(C)OC(=O)CC1(O)C(=O)Nc2nc(-c3nn(Cc4ccccc4F)c4ncccc34)ncc21` (centres unmarked) [Example 24, tert-Butyl {2-[1-(2-fluorobenzyl)-1H-pyrazolo[3,4-b]pyridin-3-yl]-5-hydroxy-6-oxo-6,7-dihydro-5H-pyrrolo[2,3-d]pyrimidin-5-yl}acetate]: 0.269 µM and 0.3 µM.
The compound `COC(=O)NC1C(=O)Nc2nc(-c3nn(Cc4ccccc4F)c4ncccc34)ncc21` (centres unmarked) [Example 26, Methyl {2-[1-(2-fluorobenzyl)-1H-pyrazolo[3,4-b]pyridin-3-yl]-6-oxo-6,7-dihydro-5H-pyrrolo[2,3-d]pyrimidin-5-yl}carbamate] gave an IC50 in the data set on aorta of 0.84 µM. Further, in data set [1], the “MEC (minimal effective concentration)” value turned out to be 0.3 µM.
For `CC1(C)C(=O)Nc2nc(-c3nn(Cc4cccc(F)c4F)c4ncccc34)nnc21` [Example 27, 3-[1-(2,3-Difluorobenzyl)-1H-pyrazolo[3,4-b]pyridin-3-yl]-7,7-dimethyl-5,7-dihydro-6H-pyrrolo[2,3-e][1,2,4]triazin-6-one], the half-inhibitory concentration (IC50) with aorta is 0.054 µM. Further, the “MEC (minimal effective concentration)” value in data set [1] was 0.03 µM. Besides, in data set [2], the CLblood is on record as 0.35 L/h/kg, the MRT came to 7.3 h and the half-life was 5.6 h.
`CC1(C)C(=O)Nc2nc(-c3nn(Cc4ccc(F)cc4F)c4ncccc34)nnc21` [Example 28, 3-[1-(2,4-Difluorobenzyl)-1H-pyrazolo[3,4-b]pyridin-3-yl]-7,7-dimethyl-5,7-dihydro-6H-pyrrolo[2,3-e][1,2,4]triazin-6-one] registered an IC50 in the data set with aorta of 0.103 µM. Moreover, the “MEC (minimal effective concentration)” value in data set [1] turned out to be 0.3 µM.
The matching figures for `O=C1Nc2nc(-c3nn(Cc4ccccc4F)c4ncc(F)cc34)ncc2C12CC2` [Example 30, 2′-[5-Fluoro-1-(2-fluorobenzyl)-1H-pyrazolo[3,4-b]pyridin-3-yl]spiro[cyclopropane-1,5′-pyrrolo[2,3-d]pyrimidin]-6′(7′H)-one]: 0.097 µM and 0.03 µM.
